Earlier results on one compound are cited in patent US6660296B2, “Sustained-release microgranules containing diltiazem as active principle” (Laboratories des Produits Ethiques Ethypharim, priority 1995, dated 2003).

Each structure is given as a SMILES string.

The conditions of the data set: neutral or basic pH; Diltiazem or its pharmaceutically acceptable salts.

Regarding `COc1ccc([C@@H]2Sc3ccccc3N(CCN(C)C)C(=O)[C@@H]2OC(C)=O)cc1` [Diltiazem], the Solubility entry is “sparingly soluble”.
